Experimental data reported in publication PMC9797592, “TJ-M2010-5, a novel CNS drug candidate, attenuates acute cerebral ischemia-reperfusion injury through the MyD88/NF-κB and ERK pathway” (Frontiers in Pharmacology, 2022).

How the values were obtained:
[1] = system: LPS-stimulated BV-2 cells; test: LPS-stimulated BV-2 cell model: morphology and TNF-α/IL-6 ELISA; assay type: cell-based; settings: LPS-stimulated BV-2 cells; pretreatment 2 h, LPS 24 h; ELISA
Experimental: (§1) BV-2 microglial and SH-SY5Y cells were cultured as previously described ([Zhao et al., 2020]). A lipopolysaccharide (LPS)-stimulated BV-2 cell model was established to mimic severe neuroinflammation induced by multiple inflammatory mediators after reperfusion ([Li et al., 2021]). BV-2 cells were pretreated with different concentrations of TJ-5 for 2 h before LPS (1 μg/ml) stimulation (#L2880, Sigma, United States). Twenty-4 hours later, BV-2 cells and the culture supernatants were harvested for subsequent experiments. In addition, ST2825, a recognized MyD88 inhibitor, was used as positive control group.
Enzyme-linked immunosorbent assay (ELISA) kits were used to detect the levels of TNF-α, IL-1β, and IL-6 in the brain. Brain tissue was homogenized in 1 ml of phosphate-buffered saline using a tissue homogenizer. Then, the homogenates were centrifuged at 14,000 g for 10 min at 4 °C. The supernatant was immediately transferred for measurement following the manufacturer’s instructions. BV-2 cells were incubated with different treatments and the supernatants were collected and measured.

NF-κB p65 = NF-κB p65 nuclear translocation in LPS-stimulated BV-2 cells, immunofluorescence; assay type: cell-based; settings: 12 h after LPS stimulation
Experimental: as §1, with “Twenty-4 hours later, BV-2 cells and the culture supernatants were harvested for subsequent experiments.” left out
For BV-2 cells immunofluorescence staining, the cells were fixed with 4% paraformaldehyde for 10 min and permeabilized with 0.5% Triton X-100 for 10 min. After blocking with goat serum, the cells were sequentially incubated with the primary antibody, secondary antibody, and Hoechst in sequence. Images were captured using a confocal microscope. The fluorescence intensity was analyzed using ImageJ software.

CIRI mice = test: MCAO cerebral ischemia-reperfusion injury model: neurological deficit score and TTC infarct volume; assay type: in vivo, C57BL/6 mice; settings: edaravone 3 mg/kg i.v. at 1 h of ischemia; 24 h reperfusion; TTC; I/R group 34.24%
Experimental: Male C57BL/6 mice (Beijing Vital River Laboratory Animal Technology Co. Ltd., Beijing, China) weighing 22–28 g and aged 8–10 weeks were used. All animal experiments were approved by the Institutional Animal Care and Use Committee of Tongji Hospital (Wuhan, China). All procedures were performed in accordance with specific pathogen-free standards. Mice were randomly divided into the following seven groups: sham, I/R, vehicle (I/R + saline), I/R + TJ-5 (5 mg/kg), I/R + TJ-5 (10 mg/kg), I/R + TJ-5 (15 mg/kg), and I/R + edaravone (3 mg/kg).
The mice were anesthetized with 1% pentobarbital sodium solution via intraperitoneal injection, and the body temperature was maintained at 37.0°C–37.5°C. The middle cerebral artery occlusion (MCAO) model was established according to the Longa method, as described previously ([Longa et al., 1989]). In brief, the right carotid artery was carefully separated and exposed. A silicon-coated embolic suture (Doccol, United States) was inserted slowly from the external carotid artery (ECA) into the internal carotid artery (ICA) until it reached the middle cerebral artery (MCA). After 1 h of ischemia, the embolic suture was withdrawn. The surgical procedure in the sham group was the same as that in the I/R group, but the MCA was not obstructed.
After 24 h of reperfusion, each group of mice was scored blindly, according to the scoring system of the Longa method ([Longa et al., 1989]). The score was 0 for no obvious neurological deficit, one for inability to fully extend the left forelimb, two for turning to the left, three for leaning to the left while walking, and four for the inability to walk spontaneously and impaired consciousness.
The mice were sacrificed 24 h after I/R. Mouse brains were harvested for the measurement of cerebral infarct volume. The brains were frozen at −80°C for 5 min and cut into five 2-mm thick slices. The slices were then placed in a small dish, 2% 2,3,5-triphenyltetrazolium chloride (TTC) solution (Sigma, United States) was added, and 4% paraformaldehyde was used for fixation. Images were captured using a digital camera. ImageJ software was used to measure the volume of the brain infarction.

Structure (SMILES)	levels of TNF-α and IL-6 in supernatants [1]	LPS-induced NF-κB p65 nuclear translocation (NF-κB p65)	percentage of infarct volume (CIRI mice)
NC(=O)[C@H]1CCS[C@@H]2C[C@]3(CCCN3C(=O)Cc3ccc(NC(=O)COc4ccc(Cl)cc4Cl)cc3)C(=O)N12 [ST2825, reference compound]	same anti-inflammatory effect	same	–
CC1=NN(c2ccccc2)C(=O)C1 [edaravone, reference compound]	–	–	18.59%
